Test results taken from PubChem BioAssay AID316 (DTP/NCI, 2004).
Several values for one entry are separate records, joined by “and”; a condition that tells them apart may be missing. Identical values can stand only once. Inconclusive results and toxic doses are left out. How the source made its calls: active means survival T/C of 150% or more; inactive means T/C below 125% in these data.

Test system: P1534 leukemia ip, CD2F1 mice, survival T/C
Test: NCI In Vivo Anticancer Drug Screen. Data for tumor model P1534 Leukemia (intraperitoneal) in CD2F1 (CDF1) mice
Conditions: endpoint: mean survival time, higher = longer survival
Description: The antitumor activity of compounds was measured in mice bearing transplantable tumors. Survival or tumor size were measured and the results are expressed as the measurement made in the treated group (T) divided by the measurement made in the vehicle treated control group (C). The tumor model used in this assay is P1534 Leukemia (intraperitoneal) in CD2F1 (CDF1) mice

[1] = dose: 12.5 mg/kg/injection, schedule: Q01DX010 (ip), vehicle: saline
[2] = dose: 25.0 mg/kg/injection, schedule: Q01DX010 (ip), vehicle: saline
[3] = dose: 50.0 mg/kg/injection, schedule: Q01DX010 (ip), vehicle: saline
[4] = dose: 10.0 mg/kg/injection, schedule: Q01DX010 (ip), vehicle: saline
[5] = dose: 100.0 mg/kg/injection, schedule: Q01DX010 (ip), vehicle: saline
[6] = dose: 200.0 mg/kg/injection, schedule: Q01DX010 (ip), vehicle: saline

Measured: T/C

CC(=O)OCC1OC(n2ncc(=O)[nH]c2=O)C(OC(C)=O)C1OC(C)=O (centres undefined)
inactive: dose: 300.0 mg/kg/injection, schedule: Q01DX010 (ip), vehicle: saline 89 % of control | dose: 450.0 mg/kg/injection, schedule: Q01DX010 (ip), vehicle: saline 96 % of control | dose: 675.0 mg/kg/injection, schedule: Q01DX010 (ip), vehicle: saline 100 % of control

O=c1cn[nH]c(=O)[nH]1
inactive: dose: 62.5 mg/kg/injection, schedule: Q01DX010 (ip), vehicle: saline 94 % of control and 100 % of control | dose: 125.0 mg/kg/injection, schedule: Q01DX010 (ip), vehicle: saline 100 % of control | dose: 250.0 mg/kg/injection, schedule: Q01DX010 (ip), vehicle: saline 94 % of control and 100 % of control | dose: 500.0 mg/kg/injection, schedule: Q01DX010 (ip), vehicle: saline 105 % of control and 111 % of control

OCCN1CCC(CCCC2CCNCC2)CC1
inactive: [1] 96 % of control | [2] 93 % of control | [3] 89 % of control

CO[C@@H]1[C@@H](OC2OC(C)C(OC3CC(C)(O)C(OC(=O)CC(C)C)C(C)O3)C(N(C)C)C2O)[C@@H](CC=O)C[C@@H](C)C(=O)/C=C/C2O[C@H]2C[C@@H](C)OC(=O)C[C@H]1OC(C)=O (some centres undefined)
inactive: dose: 50.0 mg/kg/injection, schedule: Q#A X020 (ip), vehicle: water 96 % of control | dose: 100.0 mg/kg/injection, schedule: Q01DX010 (ip), vehicle: water 92 % of control | dose: 100.0 mg/kg/injection, schedule: Q#A X020 (ip), vehicle: water 107 % of control and 109 % of control | dose: 125.0 mg/kg/injection, schedule: Q#A X020 (ip), vehicle: water 113 % of control | dose: 150.0 mg/kg/injection, schedule: Q#A X020 (ip), vehicle: water 115 % of control | dose: 175.0 mg/kg/injection, schedule: Q#A X020 (ip), vehicle: water 116 % of control | dose: 200.0 mg/kg/injection, schedule: Q01DX010 (ip), vehicle: water 110 % of control | dose: 250.0 mg/kg/injection, schedule: Q01DX010 (ip), vehicle: water 121 % of control | dose: 300.0 mg/kg/injection, schedule: Q01DX010 (ip), vehicle: water 104 % of control | dose: 1000.0 mg/kg/injection, schedule: Q01DX010 (oral), vehicle: water 119 % of control

O=C(NCCCC(NC(=O)OCc1ccccc1)C(=O)NCCCNCCCCNCCCNC(=O)C(CCCNC(=O)OCc1ccccc1)NC(=O)OCc1ccccc1)OCc1ccccc1 (centres undefined)
inactive: dose: 2.5 mg/kg/injection, schedule: Q01DX010 (ip), vehicle: saline 100 % of control | [4] 100 % of control

O=C(CNC(=O)OCc1ccccc1)NCCCCCCNCCCCCCNC(=O)CNC(=O)OCc1ccccc1
inactive: [2] 100 % of control | [3] 107 % of control | [5] 103 % of control | [6] 100 % of control

COc1ccc2c3c(c4cc(OC)c(OC)cc4c2c1)C[C@H]1CCCCN1C3
inactive: dose: 0.3 mg/kg/injection, schedule: Q01DX010 (ip), vehicle: saline 100 % of control | dose: 0.5 mg/kg/injection, schedule: Q01DX010 (ip), vehicle: saline 113 % of control

CCCNc1ncnc2c1cnn2C
inactive: dose: 3.13 mg/kg/injection, schedule: Q01DX010 (ip), vehicle: saline 100 % of control | dose: 6.25 mg/kg/injection, schedule: Q01DX010 (ip), vehicle: saline 103 % of control and 100 % of control | [1] 103 % of control and 107 % of control | [2] 107 % of control and 100 % of control

CN(CC(=O)NCCCCCCCCCCNC(=O)CN(C)C(=O)OCc1ccccc1)C(=O)OCc1ccccc1
inactive: [3] 96 % of control | [5] 96 % of control | [6] 96 % of control | dose: 400.0 mg/kg/injection, schedule: Q01DX010 (ip), vehicle: saline 96 % of control

SCc1ccccn1
inactive: [2] 107 % of control | [3] 100 % of control | [5] 115 % of control | [6] 115 % of control

COc1ccc2[nH]c3c(C)c4ccncc4c(C)c3c2c1
inactive: [4] 105 % of control and 102 % of control | dose: 20.0 mg/kg/injection, schedule: Q01DX010 (ip), vehicle: saline 110 % of control and 117 % of control | dose: 40.0 mg/kg/injection, schedule: Q01DX010 (ip), vehicle: saline 115 % of control and 123 % of control | dose: 80.0 mg/kg/injection, schedule: Q01DX010 (ip), vehicle: saline 122 % of control
